Test results from PMC10211317, “Identification of ARUK2002821 as an isoform-selective PI5P4Kα inhibitor” (RSC Medicinal Chemistry, 2023).

Assays:
Test in all cases: Premier Screen kinase panel (MRC PPU)
Assay type in all cases: biochemical
PKBb = PKBb (Homo sapiens, UniProt P31751); conditions: PKBb (Entrez AKT2), read-out: Residual activity (%)
Protocol: (§1) room temperature with shaking for 30 minutes. The kinase concentration in the eluates was measured by qPCR.
(§2) using ADP-GloTM assay at the MRC PPU International Centre for Kinase Profiling, University of Dundee.
(§3) Conducted by MRC PPU International Centre
(§4) Conducted by MRC PPU International Centre for […]

p38b MAPK = p38b MAPK (Homo sapiens, UniProt Q15759); conditions: p38b MAPK (Entrez MAPK11), read-out: Residual activity (%)
Protocol: as §1, §2, §3, §4

TAO1 = TAO1 (Homo sapiens, UniProt Q7L7X3); conditions: TAO1 (Entrez TAOK1), read-out: Residual activity (%)
Protocol: as §1, §2, §3, §4

p38a MAPK = p38a MAPK (Homo sapiens, UniProt Q16539); conditions: p38a MAPK (Entrez MAPK14), read-out: Residual activity (%)
Protocol: as §1, §2, §3, §4

Aurora A = Aurora A (Homo sapiens, UniProt O14965); conditions: Aurora A (Entrez AURKA), read-out: Residual activity (%)
Protocol: as §1, §2, §3, §4

LKB1 = LKB1 (Homo sapiens, UniProt Q15831); conditions: LKB1 (Entrez STK11), read-out: Residual activity (%)
Protocol: as §1, §2, §3, §4

CHK2 = CHK2 (Homo sapiens, UniProt O96017); conditions: CHK2 (Entrez CHEK2), read-out: Residual activity (%)
Protocol: as §1, §2, §3, §4

GCK = GCK (Homo sapiens, UniProt Q12851); conditions: read-out: Residual activity (%)
Protocol: as §1, §2, §3, §4

EPH-B2 = EPH-B2 (Homo sapiens, UniProt P29323); conditions: EPH-B2 (Entrez EPHB2), read-out: Residual activity (%)
Protocol: as §1, §2, §3, §4

CAMK1 = CAMK1 (Homo sapiens, UniProt Q14012); conditions: CAMK1 (Entrez CAMK1), read-out: Residual activity (%)
Protocol: as §1, §2, §3, §4

MKK1 = MKK1 (Homo sapiens, UniProt Q02750); conditions: MKK1 (Entrez MAP2K1), read-out: Residual activity (%)
Protocol: as §1, §2, §3, §4

TLK1 = TLK1 (Homo sapiens, UniProt Q9UKI8); conditions: TLK1 (Entrez TLK1), read-out: Residual activity (%)
Protocol: as §1, §2, §3, §4

PIM2 = PIM2 (Homo sapiens, UniProt Q9P1W9); conditions: PIM2 (Entrez PIM2), read-out: Residual activity (%)
Protocol: as §1, §2, §3, §4

MARK4 = MARK4 (Homo sapiens, UniProt Q96L34); conditions: MARK4 (Entrez MARK4), read-out: Residual activity (%)
Protocol: as §1, §2, §3, §4

PAK5 = PAK5 (Homo sapiens, UniProt Q9P286); conditions: PAK5 (Entrez PAK5), read-out: Residual activity (%)
Protocol: as §1, §2, §3, §4

MAP4K3 = MAP4K3 (Homo sapiens, UniProt Q8IVH8); conditions: MAP4K3 (Entrez MAP4K3), read-out: Residual activity (%)
Protocol: as §1, §2, §3, §4

CAMKKb = CAMKKb (Homo sapiens, UniProt Q96RR4); conditions: CAMKKb (Entrez CAMKK2), read-out: Residual activity (%)
Protocol: as §1, §2, §3, §4

Src = Src (Homo sapiens, UniProt P12931); conditions: Src (Entrez SRC), read-out: Residual activity (%)
Protocol: as §1, §2, §3, §4

DYRK3 = DYRK3 (Homo sapiens, UniProt O43781); conditions: DYRK3 (Entrez DYRK3), read-out: Residual activity (%)
Protocol: as §1, §2, §3, §4

CK1γ2 = CK1γ2 (Homo sapiens, UniProt P78368); conditions: CK1γ2 (Entrez CSNK1D), read-out: Residual activity (%)
Protocol: as §1, §2, §3, §4

CLK2 = CLK2 (Homo sapiens, UniProt P49760); conditions: CLK2 (Entrez CLK2), read-out: Residual activity (%)
Protocol: as §1, §2, §3, §4

CK1δ = CK1δ (Homo sapiens, UniProt P48730); conditions: CK1δ (Entrez CSNK1G2), read-out: Residual activity (%)
Protocol: as §1, §2, §3, §4

RIPK2 = RIPK2 (Homo sapiens, UniProt O43353); conditions: RIPK2 (Entrez RIPK2), read-out: Residual activity (%)
Protocol: as §1, §2, §3, §4

ULK2 = ULK2 (Homo sapiens, UniProt Q8IYT8); conditions: ULK2 (Entrez ULK2), read-out: Residual activity (%)
Protocol: as §1, §2, §3, §4

MSK1 = MSK1 (Homo sapiens, UniProt O75582); conditions: MSK1 (Entrez RPS6KA5), read-out: Residual activity (%)
Protocol: as §1, §2, §3, §4

MST4 = MST4 (Homo sapiens, UniProt Q9P289); conditions: MST4 (Entrez STK26), read-out: Residual activity (%)
Protocol: as §1, §2, §3, §4

EPH-B4 = EPH-B4 (Homo sapiens, UniProt P54760); conditions: EPH-B4 (Entrez EPHB4), read-out: Residual activity (%)
Protocol: as §1, §2, §3, §4

SmMLCK = SmMLCK (Homo sapiens, UniProt Q15746); conditions: SmMLCK (Entrez MYLK), read-out: Residual activity (%)
Protocol: as §1, §2, §3, §4

MLK1 = MLK1 (Homo sapiens, UniProt P80192); conditions: MLK1 (Entrez MAP3K9), read-out: Residual activity (%)
Protocol: as §1, §2, §3, §4

DAPK1 = DAPK1 (Homo sapiens, UniProt P53355); conditions: DAPK1 (Entrez DAPK1), read-out: Residual activity (%)
Protocol: as §1, §2, §3, §4

MAPKAP-K3 = MAPKAP-K3 (Homo sapiens, UniProt Q16644); conditions: MAPKAP-K3 (Entrez MAPKAPK3), read-out: Residual activity (%)
Protocol: as §1, §2, §3, §4

EPH-B4, sequence (P54760 16-987): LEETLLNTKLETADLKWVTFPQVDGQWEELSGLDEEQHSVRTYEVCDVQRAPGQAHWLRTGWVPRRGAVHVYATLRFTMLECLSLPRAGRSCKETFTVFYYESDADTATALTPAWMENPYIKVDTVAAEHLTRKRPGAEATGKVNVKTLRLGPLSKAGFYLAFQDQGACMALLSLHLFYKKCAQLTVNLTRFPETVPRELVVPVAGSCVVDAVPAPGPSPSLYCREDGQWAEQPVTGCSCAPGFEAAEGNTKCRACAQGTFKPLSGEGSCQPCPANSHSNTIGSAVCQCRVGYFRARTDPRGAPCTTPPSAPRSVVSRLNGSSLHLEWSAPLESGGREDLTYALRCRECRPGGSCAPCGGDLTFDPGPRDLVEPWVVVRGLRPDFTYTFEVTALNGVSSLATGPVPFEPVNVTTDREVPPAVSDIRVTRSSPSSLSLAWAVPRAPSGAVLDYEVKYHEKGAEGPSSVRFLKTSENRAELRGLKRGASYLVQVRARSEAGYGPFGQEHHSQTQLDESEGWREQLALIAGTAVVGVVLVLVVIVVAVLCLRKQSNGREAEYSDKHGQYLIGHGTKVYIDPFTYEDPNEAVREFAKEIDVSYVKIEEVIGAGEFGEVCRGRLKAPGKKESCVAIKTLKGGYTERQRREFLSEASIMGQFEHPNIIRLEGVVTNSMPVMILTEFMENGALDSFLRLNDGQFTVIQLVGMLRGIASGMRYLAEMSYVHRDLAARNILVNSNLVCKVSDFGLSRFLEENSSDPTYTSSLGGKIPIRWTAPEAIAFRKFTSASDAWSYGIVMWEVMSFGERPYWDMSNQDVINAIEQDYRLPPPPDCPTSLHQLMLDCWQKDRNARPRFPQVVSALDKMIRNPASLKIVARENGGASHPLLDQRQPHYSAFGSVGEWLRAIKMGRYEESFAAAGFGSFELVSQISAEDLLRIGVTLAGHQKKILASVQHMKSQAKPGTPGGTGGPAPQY
EPH-B2, sequence (P29323 19-1055): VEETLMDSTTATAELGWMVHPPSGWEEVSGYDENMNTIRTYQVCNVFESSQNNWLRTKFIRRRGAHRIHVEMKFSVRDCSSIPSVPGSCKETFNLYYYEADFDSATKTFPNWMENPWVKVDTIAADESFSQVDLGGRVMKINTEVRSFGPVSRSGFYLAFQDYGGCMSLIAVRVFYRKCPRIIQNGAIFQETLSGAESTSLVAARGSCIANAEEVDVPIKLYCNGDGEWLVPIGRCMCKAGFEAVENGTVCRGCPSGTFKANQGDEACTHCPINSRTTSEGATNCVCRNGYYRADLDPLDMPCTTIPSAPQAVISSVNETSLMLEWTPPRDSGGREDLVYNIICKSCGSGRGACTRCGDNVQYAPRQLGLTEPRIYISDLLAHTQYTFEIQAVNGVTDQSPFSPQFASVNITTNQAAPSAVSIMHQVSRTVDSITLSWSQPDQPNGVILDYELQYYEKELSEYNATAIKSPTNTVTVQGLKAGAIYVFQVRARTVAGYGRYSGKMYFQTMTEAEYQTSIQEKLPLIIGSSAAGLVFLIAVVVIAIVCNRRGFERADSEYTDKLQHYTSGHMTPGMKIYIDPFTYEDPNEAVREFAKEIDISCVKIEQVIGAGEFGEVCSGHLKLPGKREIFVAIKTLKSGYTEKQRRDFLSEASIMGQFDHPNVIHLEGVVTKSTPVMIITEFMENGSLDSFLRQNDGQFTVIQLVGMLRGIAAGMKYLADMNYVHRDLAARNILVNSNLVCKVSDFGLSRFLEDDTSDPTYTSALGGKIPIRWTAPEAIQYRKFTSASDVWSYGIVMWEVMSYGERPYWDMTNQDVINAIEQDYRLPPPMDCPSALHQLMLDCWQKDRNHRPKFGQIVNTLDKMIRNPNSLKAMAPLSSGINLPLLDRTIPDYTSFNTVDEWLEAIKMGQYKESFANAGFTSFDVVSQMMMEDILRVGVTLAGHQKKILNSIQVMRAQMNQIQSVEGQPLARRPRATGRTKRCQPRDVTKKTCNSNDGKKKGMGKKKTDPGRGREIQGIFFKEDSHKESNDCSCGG
MAPKAP-K3, sequence (Q16644 whole entry): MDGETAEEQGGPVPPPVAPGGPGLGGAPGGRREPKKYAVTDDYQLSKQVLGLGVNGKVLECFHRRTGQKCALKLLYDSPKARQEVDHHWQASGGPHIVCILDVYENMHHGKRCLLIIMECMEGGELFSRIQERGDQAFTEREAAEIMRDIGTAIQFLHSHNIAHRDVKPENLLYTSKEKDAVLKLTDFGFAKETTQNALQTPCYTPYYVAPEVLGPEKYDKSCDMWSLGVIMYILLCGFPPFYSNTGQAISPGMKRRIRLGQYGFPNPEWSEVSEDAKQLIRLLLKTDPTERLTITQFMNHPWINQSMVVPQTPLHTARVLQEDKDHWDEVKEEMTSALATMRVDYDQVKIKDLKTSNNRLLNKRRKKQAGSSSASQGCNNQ
PKBb, sequence (P31751 whole entry): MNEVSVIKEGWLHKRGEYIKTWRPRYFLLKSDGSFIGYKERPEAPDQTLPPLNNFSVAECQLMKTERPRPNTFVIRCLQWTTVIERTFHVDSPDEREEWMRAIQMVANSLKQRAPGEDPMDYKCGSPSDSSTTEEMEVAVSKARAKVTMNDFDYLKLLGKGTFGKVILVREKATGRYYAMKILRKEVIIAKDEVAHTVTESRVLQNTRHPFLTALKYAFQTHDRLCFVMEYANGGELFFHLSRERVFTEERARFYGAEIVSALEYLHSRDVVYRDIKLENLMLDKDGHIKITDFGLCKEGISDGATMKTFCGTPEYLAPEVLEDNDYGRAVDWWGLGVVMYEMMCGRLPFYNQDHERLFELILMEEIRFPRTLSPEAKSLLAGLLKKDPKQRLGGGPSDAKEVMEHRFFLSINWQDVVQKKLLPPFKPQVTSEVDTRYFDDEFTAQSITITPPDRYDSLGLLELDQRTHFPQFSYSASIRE
MSK1, sequence (O75582 whole entry): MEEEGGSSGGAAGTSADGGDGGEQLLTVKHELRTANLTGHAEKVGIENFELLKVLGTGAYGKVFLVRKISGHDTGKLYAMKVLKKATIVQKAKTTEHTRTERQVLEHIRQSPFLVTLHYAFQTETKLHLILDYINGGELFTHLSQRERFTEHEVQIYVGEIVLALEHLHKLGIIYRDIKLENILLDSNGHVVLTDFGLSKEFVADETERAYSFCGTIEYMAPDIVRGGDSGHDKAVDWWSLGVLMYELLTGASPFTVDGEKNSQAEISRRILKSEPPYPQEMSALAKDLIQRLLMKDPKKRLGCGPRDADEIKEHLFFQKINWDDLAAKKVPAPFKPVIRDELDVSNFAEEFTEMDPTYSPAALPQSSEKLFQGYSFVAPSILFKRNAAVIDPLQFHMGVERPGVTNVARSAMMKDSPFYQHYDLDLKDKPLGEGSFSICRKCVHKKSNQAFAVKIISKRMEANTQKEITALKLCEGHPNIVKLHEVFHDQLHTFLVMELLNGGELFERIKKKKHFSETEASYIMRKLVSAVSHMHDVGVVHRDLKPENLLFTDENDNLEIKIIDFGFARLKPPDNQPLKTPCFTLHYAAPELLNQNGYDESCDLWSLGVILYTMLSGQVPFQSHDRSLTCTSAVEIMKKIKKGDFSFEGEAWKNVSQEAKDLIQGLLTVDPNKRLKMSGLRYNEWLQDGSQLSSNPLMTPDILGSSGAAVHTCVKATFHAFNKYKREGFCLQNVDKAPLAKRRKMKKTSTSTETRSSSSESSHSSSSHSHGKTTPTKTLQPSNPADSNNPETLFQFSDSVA
MLK1, sequence (P80192 whole entry, species assumed): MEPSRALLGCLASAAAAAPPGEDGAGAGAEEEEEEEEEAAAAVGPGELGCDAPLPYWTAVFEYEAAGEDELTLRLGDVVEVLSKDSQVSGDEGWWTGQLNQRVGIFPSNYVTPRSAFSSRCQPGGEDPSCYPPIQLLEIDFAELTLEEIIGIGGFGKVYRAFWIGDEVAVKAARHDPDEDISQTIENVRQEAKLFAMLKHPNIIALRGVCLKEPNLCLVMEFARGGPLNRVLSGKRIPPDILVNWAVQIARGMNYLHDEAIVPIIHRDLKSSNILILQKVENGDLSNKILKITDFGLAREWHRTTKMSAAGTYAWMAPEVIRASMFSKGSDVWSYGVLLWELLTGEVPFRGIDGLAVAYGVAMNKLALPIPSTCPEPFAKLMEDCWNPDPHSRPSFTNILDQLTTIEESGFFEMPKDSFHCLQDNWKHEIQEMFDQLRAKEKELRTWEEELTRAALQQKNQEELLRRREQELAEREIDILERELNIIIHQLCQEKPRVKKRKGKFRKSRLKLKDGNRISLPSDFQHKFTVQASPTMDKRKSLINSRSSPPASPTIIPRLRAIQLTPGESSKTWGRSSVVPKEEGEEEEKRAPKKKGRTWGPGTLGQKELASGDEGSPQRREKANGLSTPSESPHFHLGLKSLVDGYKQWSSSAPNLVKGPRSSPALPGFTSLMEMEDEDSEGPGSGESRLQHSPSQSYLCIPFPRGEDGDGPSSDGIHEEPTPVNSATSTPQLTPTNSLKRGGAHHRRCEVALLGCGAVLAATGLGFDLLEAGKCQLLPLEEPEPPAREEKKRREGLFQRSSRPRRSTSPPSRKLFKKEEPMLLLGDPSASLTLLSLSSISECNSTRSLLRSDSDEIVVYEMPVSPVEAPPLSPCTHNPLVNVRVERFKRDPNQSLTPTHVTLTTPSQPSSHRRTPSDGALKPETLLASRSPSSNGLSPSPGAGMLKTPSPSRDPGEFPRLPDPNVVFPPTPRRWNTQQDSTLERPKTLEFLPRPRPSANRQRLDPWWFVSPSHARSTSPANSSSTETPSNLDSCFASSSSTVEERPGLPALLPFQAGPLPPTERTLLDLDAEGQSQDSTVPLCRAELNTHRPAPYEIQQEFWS

COc1ccc(Nc2ncnc3c2ccn3-c2ccc(C)c(C)c2)cc1Cl [compound 36]
remaining activity at 1 µM (PKBb): 103%
remaining activity at 1 µM (p38b MAPK): 103%
remaining activity at 1 µM (TAO1): 111%
remaining activity at 1 µM (p38a MAPK): 98%
remaining activity at 1 µM (Aurora A): 81%
remaining activity at 1 µM (LKB1): 101%
remaining activity at 1 µM (CHK2): 96%
remaining activity at 1 µM (GCK): 105%
remaining activity at 1 µM (EPH-B2): 97%
remaining activity at 1 µM (CAMK1): 99%
remaining activity at 1 µM (MKK1): 112%
remaining activity at 1 µM (TLK1): 96%
remaining activity at 1 µM (PIM2): 97%
remaining activity at 1 µM (MARK4): 76%
remaining activity at 1 µM (PAK5): 94%
remaining activity at 1 µM (MAP4K3): 92%
remaining activity at 1 µM (CAMKKb): 96%
remaining activity at 1 µM (Src): 93%
remaining activity at 1 µM (DYRK3): 68%
remaining activity at 1 µM (CK1γ2): 92%
remaining activity at 1 µM (CLK2): 107%
remaining activity at 1 µM (CK1δ): 92%
remaining activity at 1 µM (RIPK2): 92%
remaining activity at 1 µM (ULK2): 92%
remaining activity at 1 µM (MSK1): 103%
remaining activity at 1 µM (MST4): 99%
remaining activity at 1 µM (EPH-B4): 99%
remaining activity at 1 µM (SmMLCK): 99%
remaining activity at 1 µM (MLK1): 70%
remaining activity at 1 µM (DAPK1): 118%
remaining activity at 1 µM (MAPKAP-K3): 101%
